Read-outs that look alike come from different tables or passages of the source.
Tests used:
HeLa cells [1] = experiment: MTT cytotoxicity assay, HeLa cells, 48 h; format: cell-based, human; conditions: read-out: IC50 (μM) HeLa
Text: (§1) Human cervical cancer cells (HeLa), human breast cancer cells (MCF-7) and green monkey kidney epithelial cells (BGM) were acquired from the American Type Culture Collection (ATCC, USA). The reason to choose human cervical cancer cells (HeLa) and human breast cancer cells (MCF-7) was to use a cell culture model that closely represented the human in vivo situation. The green monkey kidney epithelial cells (BGM) were chosen to compare cancer cells with healthy cells. Cell lines were maintained in Dulbecco’s Modified Eagle Medium (DMEM) with a low glucose content (1 g/L) supplemented with 10% (v/v) fetal bovine serum (FBS), 1 mM glutamax, 1% antibiotics (penicillin–streptomycin) and 1 mM pyruvate. In all cases, the cells were maintained at 37 °C in 5% CO2 atmosphere of 95% humidity. Cells were sub-cultured and the medium was changed once a week. In all cases, 0.25% trypsin, 0.25 mM ethylenediaminetetraacetic acid (EDTA) was used.
(§2) A total of 5 × 10^3 cells/well (200 µL of the culture medium described above) were seeded into a 96-well plate and incubated at 37 °C in a 5% CO2 and 95% humidity atmosphere for 24 h. […] Finally, a 200 µL aliquot of each of these last sixteen solutions was added to the wells. Cells were incubated at 37 °C for 48 h. The medium was then removed from the wells and 200 μL of MTT (3-(4,5-dimethylthiazol-2-yl)-2,5-diphenyltetrazolium bromide, 1 mg/mL final concentration) was added. After 4 h incubation in identical conditions, MTT was removed and 100 µL of dimethyl sulfoxide (DMSO) added. The absorbance at 560 nm was measured and recorded in a Fluostar Omega spectrophotometer.
(§3) Absorbances at each compound concentration were translated into inhibition percentages, I%, according to Equation (1):(1) I% = [1− AT/AC]×100 where AT and AC are the absorbance of treated and control cells, respectively.
(§4) The fitting was performed using GraphPad Prism v.8 software. All compounds were tested in three independent sets with triplicate points. The in vitro studies were performed in SACE (Support Service for Experimental Sciences, University of Murcia, Murcia, Spain) with biosecurity Level 2.

MCF-7 cells [2] = experiment: MTT cytotoxicity assay, MCF-7 cells, 48 h; format: cell-based, human; conditions: read-out: IC50 (μM) MCF-7
Text: as §1, §2, §3, §4

BGM cells [3] = experiment: MTT cytotoxicity assay, BGM cells, 48 h; format: cell-based, green monkey; conditions: read-out: IC50 (μM) BGM
Text: as §1, §2, §3, §4

HeLa cells [4] = tested on: HeLa cells; parameters: method as in PMID 29880783; conditions: cisplatin value from the literature; cited from earlier work
MCF-7 cells [5] = conditions: cisplatin value from the literature; cited from earlier work
BGM cells [6] = conditions: cisplatin value from the literature; cited from earlier work
[7] = human cervical cancer cells, 48 h exposure, MTT
[8] = human breast cancer cells, 48 h exposure, MTT
[9] = healthy green monkey kidney epithelial cells, 48 h exposure, MTT
[10] = MCF7, human breast cancer cells, 48 h exposure, MTT
[11] = Chlorocebus sabaeus, BGM, healthy green monkey kidney epithelial cells, 48 h exposure, MTT

Row | Compound | IC50 (HeLa cells [1]; [7]) [µM] | IC50 (MCF-7 cells [2]; [8]) [µM] | IC50 (BGM cells [3]; [9]) [µM] | IC50 (MCF-7 cells [2]; [10]) [µM] | IC50 (BGM cells [3]; [11]) [µM] | other results
1 | N#Cc1ccncc1 [4-cyanopyridine] |  |  |  |  |  | IC50 (HeLa cells [1]; Homo sapiens, 48 h): > 250 µM; IC50 (MCF-7 cells [2]; Homo sapiens, MCF7, 48 h): > 250 µM; IC50 (BGM cells [3]; Chlorocebus sabaeus, BGM, 48 h): > 250 µM
2 | Cc1ccc(C(C)C)cc1.Nc1ccc(O)cc1.[Cl][Ru][Cl] [Complex III] | 171 ± 2.1 | 75.8 ± 2.3 | 59.6 ± 1.9 |  |  | 
3 | Cc1ccc(C(C)C)cc1.Nc1ccccc1O.[Cl][Ru][Cl] [Complex II] | 82.9 ± 0.67 | 28.7 ± 1.8 | > 250 |  |  | 
4 | Cc1ccc(C(C)C)cc1.[Cl][Ru][Cl].c1ccnnc1 [Complex IV] | > 250 | > 250 | > 250 |  |  | 
5 | Cc1ccc(C(C)C)cc1.N#Cc1ccncc1.[Cl][Ru][Cl] [Complex I] | > 250 | > 250 | > 250 |  |  | 
6 | Cc1ccc(C(C)C)cc1.F[P-](F)(F)(F)(F)F.Nc1ccccc1O.Nc1ccccc1O.[Cl][Ru+] [Complex VI] | 57.6 ± 4 | 24.9 ± 4.3 | 95 ± 1.7 |  |  | 
7 | Nc1ccccc1O [L = 2-aminophenol, 2-aminophenol] | > 250 |  |  | 131.3 ± 0.15 | > 250 | 
8 | Nc1ccc(O)cc1 [L = 4-aminophenol, 4-aminophenol] | > 250 |  |  | > 250 | > 250 | 
9 | c1ccnnc1 [Pyridazine] | > 250 |  |  | > 250 | > 250 | 
10 | N.N.[Cl][Pt][Cl] [cisplatin] |  |  |  |  |  | IC50 (HeLa cells [4]): 67.6 ± 2 µM; IC50 (MCF-7 cells [5]): 7.15 ± 0.1 µM; IC50 (BGM cells [6]): 5.45 ± 0.2 µM
